Like-named read-outs stand apart in the source and are kept apart here.
Assay: [11C]GSK1034702 PET brain distribution and kinetics in healthy male humans
Format: in vivo
Conditions: human
Protocol: An open-label PET study (GSK study number 110771) was conducted to assess the transport of [^11C]GSK1034702 across the BBB and its distribution in the living human brain. Four healthy males aged between 35 and 55 years old, with body mass index (BMI) between 19.0 and 29.0 kg/m^2, and the absence of past or present neurological, medical or psychiatric illnesses and concomitant medications were enrolled. Clinical status was assessed by history, physical examination, routine blood tests, urine toxicology and electrocardiogram. All subjects provided written informed consent. The study was approved by the Edinburgh Independent Ethics Committee for Medical Research and permission to administer radioisotopes was obtained from the Administration of Radioactive Substances Advisory Committee of the UK. Subjects were recruited by and monitored by the Hammersmith Medicines Research (HMR) clinic. All scanning procedures were performed at the GlaxoSmithKline Clinical Imaging Center, Hammersmith Hospital, London.
Each subject underwent a single study day, during which PET imaging was performed. T1-weighted structural MRI scan was performed for all subjects to provide neuroanatomical information. A tracer dose of [^11C]GSK1034702 (mass <50 μg) was administered as an IV bolus immediately before each PET scan. During the scanning day, each subject received a baseline [^11C]GSK1034702 scan, followed by a single 5-mg oral dose (p.o.) of […] and a subsequent [^11C]GSK1034702 scan approximately 4 h post-dose. Subjects returned to the clinic for a follow-up visit 7 to 14 days following the oral dose of GSK1034702.
Dynamic PET data were acquired using a Siemens Biograph 6 Truepoint with TrueV PET-CT (Siemens Healthcare, Malvern, PA, USA) in three-dimensional (3D) mode. A computed tomography (CT) scan was acquired for attenuation correction of PET data prior to administration of the radiotracer. A cannula was inserted under local anaesthesia into the radial artery, contralateral to the tracer injection site, and used to collect arterial blood samples to estimate the time course of radioactivity and metabolism of GSK1034702. The radiotracer was administered as an IV bolus over 20 s, and dynamic PET data were acquired for 90 min.
Arterial blood radioactivity was measured continuously for the first 15 min after [^11C]GSK1034702 injection, using a continuous sampling system (ABSS Allogg, Mariefred, Sweden). In addition, 12 serial discrete blood samples were obtained (at 5, 10, 15, 20, 25, 30, 40, 50, 60, 70, 80 and 90 min post injection), to determine whole blood and plasma activity. Seven samples (at 5, 10, 20, 30, 50, 70 and 90 min) were further processed by HPLC to measure the fraction of plasma activity representing unmetabolised GSK1034702. For all human studies, the non-protein-bound fraction of [^11C]GSK1034702 in arterial plasma (fP) was assessed by ultrafiltration for the blood sample taken at the beginning of the scan.
Emission PET data were binned into 26 frames (durations: 8 × 15 s, 3 × 60 s, 5 × 2 min, […], 5 × 10 min) and reconstructed using Fourier re-binning and a two-dimensional (2D) filtered back projection algorithm with a ramp filter. Image data were then smoothed with a Gaussian filter (5 mm FWHM). The PET reconstruction process included corrections for scatter, randoms and attenuation. Dynamic PET data were corrected for motion via frame-to-frame image registration and aligned with the structural T1 MRI image using SPM5 (Wellcome Trust Centre for Neuroimaging, http://www.fil.ion.ucl.ac.uk/spm) with a mutual information cost function.
The CIC Neuroanatomical Atlas was non-linearly deformed into the individual's space to obtain a personalised anatomical parcellation of ROIs. These ROIs were applied to the dynamic emission data, and regional TACs were obtained for the whole brain, frontal cortex, occipital cortex, striatum, thalamus, hippocampus and cerebellum. […]

For [11CH3]c1cc(F)c2[nH]c(=O)n(C3CCN(C4CCOCC4)CC3)c2c1 [[^11C]GSK1034702], the “K 1” value (Cerebellum, Subject 1 Scan 1 (baseline)) was 0.23 mL.cm^−3.min^−1, the “K 1” value (Cerebellum, Subject 2 Scan 1 (baseline)) was 0.19 mL.cm^−3.min^−1 and the “K 1” value (Cerebellum, Subject 2 Scan 2 (post dose, 5 mg oral)) was 0.15 mL.cm^−3.min^−1. The “K 1” value (Cerebellum, Subject 4 Scan 1 (baseline)) was 0.19 mL.cm^−3.min^−1, the “K 1” value (Cerebellum, Subject 4 Scan 2 (post dose, 5 mg oral)) was 0.19 mL.cm^−3.min^−1 and the “K 1” value (Cortex, Subject 1 Scan 1 (baseline)) was 0.19 mL.cm^−3.min^−1. For the same compound, the “K 1” value (Cortex, Subject 2 Scan 1 (baseline)) was 0.16 mL.cm^−3.min^−1, the “K 1” value (Cortex, Subject 2 Scan 2 (post dose, 5 mg oral)) was 0.12 mL.cm^−3.min^−1 and the “K 1” value (Cortex, Subject 4 Scan 1 (baseline)) was 0.16 mL.cm^−3.min^−1. For the same compound, the “K 1” value (Cortex, Subject 4 Scan 2 (post dose, 5 mg oral)) was 0.17 mL.cm^−3.min^−1, the “K 1” value (MTL, Subject 1 Scan 1 (baseline)) was 0.33 mL.cm^−3.min^−1 and the “K 1” value (MTL, Subject 2 Scan 1 (baseline)) was 0.19 mL.cm^−3.min^−1. For the same compound, the “K 1” value (MTL, Subject 2 Scan 2 (post dose, 5 mg oral)) was 0.16 mL.cm^−3.min^−1, the “K 1” value (MTL, Subject 4 Scan 1 (baseline)) was 0.24 mL.cm^−3.min^−1 and the “K 1” value (MTL, Subject 4 Scan 2 (post dose, 5 mg oral)) was 0.25 mL.cm^−3.min^−1. The “K 1” value (Striatum, Subject 1 Scan 1 (baseline)) was 0.20 mL.cm^−3.min^−1, the “K 1” value (Striatum, Subject 2 Scan 1 (baseline)) was 0.16 mL.cm^−3.min^−1 and the “K 1” value (Striatum, Subject 2 Scan 2 (post dose, 5 mg oral)) was 0.13 mL.cm^−3.min^−1. The “K 1” value (Striatum, Subject 4 Scan 1 (baseline)) was 0.18 mL.cm^−3.min^−1, the “K 1” value (Striatum, Subject 4 Scan 2 (post dose, 5 mg oral)) was 0.18 mL.cm^−3.min^−1 and the “K 1” value (Thalamus, Subject 1 Scan 1 (baseline)) was 0.29 mL.cm^−3.min^−1. The “K 1” value (Thalamus, Subject 2 Scan 1 (baseline)) was 0.19 mL.cm^−3.min^−1, the “K 1” value (Thalamus, Subject 2 Scan 2 (post dose, 5 mg oral)) was 0.15 mL.cm^−3.min^−1 and the “K 1” value (Thalamus, Subject 4 Scan 1 (baseline)) was 0.20 mL.cm^−3.min^−1. The “K 1” value (Thalamus, Subject 4 Scan 2 (post dose, 5 mg oral)) was 0.20 mL.cm^−3.min^−1, the “K 1” value (White matter, Subject 1 Scan 1 (baseline)) was 0.13 mL.cm^−3.min^−1 and the “K 1” value (White matter, Subject 2 Scan 1 (baseline)) was 0.10 mL.cm^−3.min^−1. The “K 1” value (White matter, Subject 2 Scan 2 (post dose, 5 mg oral)) was 0.08 mL.cm^−3.min^−1, the “K 1” value (White matter, Subject 4 Scan 1 (baseline)) was 0.11 mL.cm^−3.min^−1 and the “K 1” value (White matter, Subject 4 Scan 2 (post dose, 5 mg oral)) was 0.11 mL.cm^−3.min^−1. For the same compound, the “change in MTL VT following oral dose of 5 mg GSK1034702” value (both subjects with pre- and post-dose data) was “small (but non-significant) reduction”, the Kp (brain cortex, intravenous, Cortex, Subject 1 Scan 1 (baseline), read-out: V T) was 5.37 and the Kp (brain cortex, intravenous, Cortex, Subject 2 Scan 1 (baseline), read-out: V T) was 5. It also gave a Kp (brain cortex, intravenous, Cortex, Subject 4 Scan 1 (baseline), read-out: V T) of 5.57, a Kp (brain cortex, po, Cortex, Subject 2 Scan 2 (post dose, 5 mg oral), read-out: V T) of 4.03 and a Kp (brain cortex, po, Cortex, Subject 4 Scan 2 (post dose, 5 mg oral), read-out: V T) of 4.81. It also gave a Kp (brain striatum, intravenous, Striatum, Subject 1 Scan 1 (baseline), read-out: V T) of 5.59, a Kp (brain striatum, intravenous, Striatum, Subject 2 Scan 1 (baseline), read-out: V T) of 5.05 and a Kp (brain striatum, intravenous, Striatum, Subject 4 Scan 1 (baseline), read-out: V T) of 5.83. It also gave a Kp (brain striatum, po, Striatum, Subject 2 Scan 2 (post dose, 5 mg oral), read-out: V T) of 5.29, a Kp (brain striatum, po, Striatum, Subject 4 Scan 2 (post dose, 5 mg oral), read-out: V T) of 4.93 and a Kp (brain white matter, intravenous, White matter, Subject 4 Scan 1 (baseline), read-out: V T) of 5.04. The Kp (cerebellum, intravenous, Cerebellum, Subject 1 Scan 1 (baseline), read-out: V T) was 5.33, the Kp (cerebellum, intravenous, Cerebellum, Subject 2 Scan 1 (baseline), read-out: V T) was 4.75 and the Kp (cerebellum, intravenous, Cerebellum, Subject 4 Scan 1 (baseline), read-out: V T) was 5.17. It also gave a Kp (cerebellum, po, Cerebellum, Subject 2 Scan 2 (post dose, 5 mg oral), read-out: V T) of 3.69, a Kp (cerebellum, po, Cerebellum, Subject 4 Scan 2 (post dose, 5 mg oral), read-out: V T) of 4.56 and a Kp (medial temporal lobe (MTL), intravenous, MTL, Subject 1 Scan 1 (baseline), read-out: V T) of 7.81. For the same compound, the Kp (medial temporal lobe (MTL), intravenous, MTL, Subject 2 Scan 1 (baseline), read-out: V T) was 13.3, the Kp (medial temporal lobe (MTL), intravenous, MTL, Subject 4 Scan 1 (baseline), read-out: V T) was 7.11 and the Kp (medial temporal lobe (MTL), po, MTL, Subject 2 Scan 2 (post dose, 5 mg oral), read-out: V T) was 8.3. The Kp (medial temporal lobe (MTL), po, MTL, Subject 4 Scan 2 (post dose, 5 mg oral), read-out: V T) was 6.91, the “change in K1 following oral dose of 5 mg GSK1034702” value (post-dose versus baseline scan) was “no significant change” and the “change in VT following oral dose of 5 mg GSK1034702” value (post-dose versus baseline scan) was “no significant change”. For the same compound, the Kp (thalamus, intravenous, Thalamus, Subject 1 Scan 1 (baseline), read-out: V T) was 6.29, the Kp (thalamus, intravenous, Thalamus, Subject 2 Scan 1 (baseline), read-out: V T) was 5.44 and the Kp (thalamus, intravenous, Thalamus, Subject 4 Scan 1 (baseline), read-out: V T) was 5.74. For the same compound, the Kp (thalamus, po, Thalamus, Subject 2 Scan 2 (post dose, 5 mg oral), read-out: V T) was 4.39, the Kp (thalamus, po, Thalamus, Subject 4 Scan 2 (post dose, 5 mg oral), read-out: V T) was 5.11 and the Kp (white matter, intravenous, White matter, Subject 1 Scan 1 (baseline), read-out: V T) was 4.63. It also gave a Kp (white matter, intravenous, White matter, Subject 2 Scan 1 (baseline), read-out: V T) of 4.38, a Kp (white matter, po, White matter, Subject 2 Scan 2 (post dose, 5 mg oral), read-out: V T) of 4.01 and a Kp (white matter, po, White matter, Subject 4 Scan 2 (post dose, 5 mg oral), read-out: V T) of 4.49. The Kp (male, medial temporal lobe (MTL), intravenous, range over scans, read-out: VT in the MTL) was 7 to 13, the Kp (male, white matter, intravenous, range over scans, read-out: VT in the white matter) was 4 to 5 and the Kp (male, whole brain, intravenous, two-tissue compartmental model, read-out: whole brain VT) was 4.9.

— article PMC4452589, “An evaluation of the brain distribution of [^11C]GSK1034702, a muscarinic-1 (M1) positive allosteric modulator in the living human brain using positron emission tomography” (EJNMMI Research, 2014)
